According to ChEMBL document CHEMBL1146751, “Threshold interaction energy of NRTI's (2'-deoxy 3'-substituted nucleosidic analogs of reverse transcriptase inhibitors) to undergo competitive inhibition” (Bioorg Med Chem Lett, 2004):
pIC50: −log10 of the molar value. Where a name gives a salt, the structure may show the parent alone.

These compounds were tested on MT4 (assay: Potency against […] nucleoside reverse transcriptor was determined in MT-4 cells). Conditions: Homo sapiens.
Format: functional, cell-based

First: O=C1Nc2ccc(Cl)cc2[C@@](C#CC2CC2)(C(F)(F)F)O1 [EFAVIRENZ]
Second: Cc1ccnc2c1NC(=O)c1cccnc1N2C1CC1 [NEVIRAPINE]
The pIC50 of the first is 1.18 log units higher: 7.40 for the first, 6.22 for the second.

First: S=C(NCCc1ccccn1)Nc1ccc(Br)cn1 [TROVIRDINE HYDROCHLORIDE]
Second: Cc1ncc([N+](=O)[O-])n1CCOC(c1ccccc1)c1ccccc1
The pIC50 of the first is 1.20 log units lower: 6.10 for the first, 7.30 for the second.

First: Nc1ccn([C@H]2CC[C@@H](CO)O2)c(=O)n1 [ZALCITABINE]
Second: Cc1cn([C@H]2C[C@H](N=[N+]=[N-])[C@@H](CO)O2)c(=O)[nH]c1=O [ZIDOVUDINE]
The pIC50 of the first is 1.60 log units lower: 5.80 for the first, 7.40 for the second. The second is the more potent here.

First: CCOC(=O)c1cccn1S(=O)(=O)c1cc(Cl)ccc1N
Second: Nc1[nH]cnc2ncnc1-2 [ADENINE]
The pIC50 of the first is 1.48 log units higher: 6.40 for the first, 4.92 for the second.
